#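 Briefly, cells in 96-well plates were exposed to five compound concentrations for 48 h, and endpoints were estimated by linear interpolation. The concentration for 50% growth inhibition is given as GI50. TGI: total growth inhibition.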
# Legend:
# Test in all cases: NCI-60 cell line screen, 48 h
# [1] = system: RPMI-8226 leukemia
# [2] = system: OVCAR-8 ovarian
# [3] = system: SR leukemia
# [4] = system: M14 melanoma
# [5] = system: OVCAR-4 ovarian
# [6] = system: SK-OV-3 ovarian
# [7] = system: IGROV1 ovarian
# [8] = system: A498 renal
# [9] = system: PC-3 prostate
# [10] = system: LOX IMVI melanoma
# [11] = system: ACHN renal
# [12] = system: MCF7 breast
# [13] = system: MDA-MB-231 breast
# [14] = system: HCT-15 colon
# [15] = system: SF-295 CNS
# [16] = system: MOLT-4 leukemia
# [17] = system: OVCAR-5 ovarian
# [18] = system: SK-MEL-2 melanoma
# [19] = system: MALME-3M melanoma
# [20] = system: SNB-19 CNS
# [21] = system: SNB-75 CNS
# [22] = system: OVCAR-3 ovarian
# [23] = system: SK-MEL-28 melanoma
# [24] = system: DU-145 prostate
# [25] = system: CAKI-1 renal
# [26] = system: MDA-MB-435
# [27] = system: A549 NSCLC
# [28] = system: NCI/ADR-RES ovarian
# [29] = system: HT29 colon
# [30] = system: NCI-H23 lung
# [31] = system: UO-31 renal
# [32] = system: T-47D breast
# [33] = system: NCI-H460 lung
# [34] = system: SF-539 CNS
# [35] = system: KM12 colon
# [36] = system: NCI-H226 lung
# [37] = system: COLO 205 colon
# [38] = system: NCI-H522 lung
# [39] = system: HS 578T breast
# [40] = system: SN12C renal
# [41] = system: UACC-62 melanoma
# [42] = system: U251 CNS
# [43] = system: SF-268 CNS
# [44] = system: 786-0 renal
# [45] = system: CCRF-CEM leukemia
# [46] = system: HCT-116 colon
# [47] = system: SW-620 colon
# [48] = system: HCC-2998 colon
# [49] = system: HOP-92 NSCLC
# [50] = system: RXF 393 renal
# [51] = system: TK-10 renal
# [52] = system: UACC-257 melanoma
# [53] = system: K-562 leukemia
# [54] = system: BT-549 breast
# [55] = system: SK-MEL-5 melanoma
# [56] = system: EKVX NSCLC
# [57] = system: HOP-62 NSCLC
structure (smiles),measurement,setting,value
O=[N+]([O-])c1ccc(N/N=C/c2c(O)ccc3ccccc23)nc1,GI50,[1],> 100 µM
same,TGI,[1],> 100 µM
same,GI50,[2],5.78 µM
same,TGI,[2],> 100 µM
same,GI50,[3],0.665 µM
same,TGI,[3],> 100 µM
same,GI50,[4],16.4 µM
same,TGI,[4],> 100 µM
same,GI50,[5],0.783 µM
same,TGI,[5],> 100 µM
same,GI50,[6],> 100 µM
same,TGI,[6],> 100 µM
same,GI50,[7],7.48 µM
same,TGI,[7],> 100 µM
same,GI50,[8],> 100 µM
same,TGI,[8],> 100 µM
same,GI50,[9],48.7 µM
same,TGI,[9],> 100 µM
same,GI50,[10],1.26 µM
same,TGI,[10],> 100 µM
same,GI50,[11],0.775 µM
same,TGI,[11],> 100 µM
same,GI50,[12],1.91 µM
same,TGI,[12],> 100 µM
same,GI50,[13],15.9 µM
same,TGI,[13],> 100 µM
same,GI50,[14],0.655 µM
same,TGI,[14],> 100 µM
same,GI50,[15],4.9 µM
same,TGI,[15],> 100 µM
same,GI50,[16],1.62 µM
same,TGI,[16],> 100 µM
same,GI50,[17],> 100 µM
same,TGI,[17],> 100 µM
same,GI50,[18],> 100 µM
same,TGI,[18],> 100 µM
same,GI50,[19],27.8 µM
same,TGI,[19],> 100 µM
same,GI50,[20],> 100 µM
same,TGI,[20],> 100 µM
same,GI50,[21],> 100 µM
same,TGI,[21],> 100 µM
same,GI50,[22],0.517 µM
same,TGI,[22],> 100 µM
same,GI50,[23],> 100 µM
same,TGI,[23],> 100 µM
same,GI50,[24],6.77 µM
same,TGI,[24],> 100 µM
same,GI50,[25],0.518 µM
same,TGI,[25],> 100 µM
same,GI50,[26],55.2 µM
same,TGI,[26],> 100 µM
same,GI50,[27],27.7 µM
same,TGI,[27],> 100 µM
same,GI50,[28],1.82 µM
same,TGI,[28],> 100 µM
same,GI50,[29],> 100 µM
same,TGI,[29],> 100 µM
same,GI50,[30],> 100 µM
same,TGI,[30],> 100 µM
same,GI50,[31],1.25 µM
same,TGI,[31],> 100 µM
same,GI50,[32],6.39 µM
same,TGI,[32],> 100 µM
same,GI50,[33],3.3 µM
same,TGI,[33],> 100 µM
same,GI50,[34],11.1 µM
same,TGI,[34],> 100 µM
same,GI50,[35],8.73 µM
same,TGI,[35],> 100 µM
same,GI50,[36],93.8 µM
same,TGI,[36],> 100 µM
same,GI50,[37],30.5 µM
same,TGI,[37],> 100 µM
same,GI50,[38],3.74 µM
same,TGI,[38],> 100 µM
same,GI50,[39],57.8 µM
same,TGI,[39],> 100 µM
same,GI50,[40],48.5 µM
same,TGI,[40],> 100 µM
same,GI50,[41],9.82 µM
same,TGI,[41],> 100 µM
same,GI50,[42],5.01 µM
same,TGI,[42],> 100 µM
same,GI50,[43],4 µM
same,TGI,[43],> 100 µM
same,GI50,[44],13.3 µM
same,TGI,[44],> 100 µM
same,GI50,[45],0.918 µM
same,TGI,[45],> 100 µM
same,GI50,[46],3.16 µM
same,TGI,[46],> 100 µM
same,GI50,[47],3.61 µM
same,TGI,[47],> 100 µM
same,GI50,[48],28.8 µM
same,TGI,[48],> 100 µM
same,GI50,[49],7.94 µM
same,TGI,[49],99.4 µM
same,GI50,[50],> 100 µM
same,TGI,[50],> 100 µM
same,GI50,[51],55.9 µM
same,TGI,[51],> 100 µM
same,GI50,[52],8.75 µM
same,TGI,[52],> 100 µM
same,GI50,[53],> 100 µM
same,TGI,[53],> 100 µM
same,GI50,[54],39.8 µM
same,TGI,[54],> 100 µM
same,GI50,[55],20.1 µM
same,TGI,[55],> 100 µM
same,GI50,[56],6.5 µM
same,TGI,[56],> 100 µM
same,GI50,[57],6.82 µM
same,TGI,[57],> 100 µM

# Reference: PubChem BioAssay (NCI)
